In patent publication US20240382455A1, “COMPOSITION CONTAINING 1H-PYRAZOLE-3-AMIDE-BASED COMPOUND DERIVATIVE FOR PREVENTION OR TREATMENT OF FIBROSIS” (TSD LIFE SCIENCES CO., LTD., priority 2017, published 2024):

How the values were obtained:
Assay type in all cases: in vivo, C57BL/6 mice
[1] = test system: αSMA, TGF-β1, COL6A3, and LOX mRNAs; test: Quantitative real-time PCR on liver tissue of fibrosis model mice; conditions: liver tissue (FIG. 5); 10 mg/kg intraperitoneal for 4 weeks; almost similar to rimonabant 10 mg/kg positive control
Experimental: (§1) First, after stabilizing 5-week old male C57BL/6 mice for one week, a fibrosis model was constructed by feeding the mice with a high fat diet and a high-carbohydrate diet for 12 weeks, thereby inducing fibrosis of the mice. After that, the mice were divided into total four groups, and a vehicle (negative control group), 10mg/kg of rimonabant (positive control group), 10 mg/kg of a compound 1, and 10mg/kg of a compound 2 were administered to each of the groups by intraperitoneal injection for 4 weeks. In order to perform an experimental process, the mice were sacrificed, and epididymal adipose and liver tissues were extracted from the sacrificed mice.
(§2) After separating RNA from the extracted epididymal adipose and liver tissues by using a Trizol reagent (Gibco), cDNA templates were produced by using reverse transcriptase. After injecting such produced cDNA templates into SYBR green dyes by using gene-specific nucleotide primers, PCR products were analyzed to obtain analyzed mRNAs by amplifying the cDNA templates injected into SYBR green dyes with a real-time multiplexing amplification system (CFX connect™, Bio-Rad). At this time, the analyzed mRNAs were αSMA, TGF-β1, COL6A3, and LOX mRNAs, and used primer sequences are as described in the following [Table 1].

[2] = test system: αSMA, TGF-β1, COL6A3, and LOX mRNAs; test: Quantitative real-time PCR on epididymal adipose tissue of fibrosis model mice; conditions: adipose tissue (FIG. 3); 10 mg/kg intraperitoneal for 4 weeks; almost similar to rimonabant 10 mg/kg positive control
Experimental: as §1, §2

[3] = test system: collagen permeated into liver tissue of fibrosis model mice; test: Picrosirius staining of liver tissue of fibrosis model mice; conditions: liver tissue (FIG. 4); high fat and high-carbohydrate diet mice; 10 mg/kg intraperitoneal for 4 weeks; compared to vehicle treatment group
Experimental: as §1
(§3) After fixing and embedding the extracted epididymal adipose and liver tissues, paraffin sections were manufactured by slicing the embedded epididymal adipose and liver tissues. After that, fibrosis degrees were analyzed by staining collagen permeated into each of the tissues by using a picrosirius red stain kit.

[4] = test system: collagen permeated into epididymal adipose tissue of fibrosis model mice; test: Picrosirius staining of epididymal adipose tissue of fibrosis model mice; conditions: adipose tissue (FIG. 2); high fat and high-carbohydrate diet mice; 10 mg/kg intraperitoneal for 4 weeks; compared to vehicle treatment group
Experimental: as §1, §3

Row | SMILES | expression of four gene mRNAs (αSMA, TGF-β1, COL6A3, LOX) [1] | expression of four gene mRNAs (αSMA, TGF-β1, COL6A3, LOX) [2] | accumulation degrees stained with red color (picrosirius, collagen) [3] | accumulation degrees stained with red color (picrosirius, collagen) [4]
1 | Cc1c(/C=C/C(=O)NCc2cccc(Cl)c2)nn(-c2ccc(Cl)cc2Cl)c1-c1ccc(Cl)cc1 [compound 1, (E)-N-(3-chlorobenzyl)-3-(5-(4-chlorophenyl)-1-(2,4-dichlorophenyl)-4-methyl-1H-pyrazole-3-yl)acrylamide] | inhibited | inhibited | reduced | reduced
2 | Cc1c(C(=O)C(=O)NCCO)nn(-c2ccc(Cl)cc2Cl)c1-c1ccc(Cl)cc1 [compound 2, 2-(5-(4-chlorophenyl)-1-(2,4-dichlorophenyl)-4-methyl-1H-pyrazole-3-yl)-N-(2-hydroxyethyl)-2-oxo-acetamide] | inhibited | inhibited | reduced | reduced
